The subject of the assay is skin of adult mice (level of peroxides). Briefly: Peroxide level (TBA test) in skin of adult mice after cream application. The assay is classed as in vivo. The settings on record: 0.1% dissolved in Oil of Olay, similar experiments. How it is done:
The plants that may be utilized as a source of the water soluble extract include the plant tissues of selected species such as the stems and green leaves selected from the group consisting of Spinacia, Trifolium, Medicago, Zea, Penicillaria, Algae, and Nicotiana. Other plants may be utilized if an aqueous extract of the green leaves provide an antioxidant effect when it is applied to skin. The antioxidant effect is determined by the thiobarbituric acid (TBA) test. This test is described in Food Res. V. 23, P 620 (1958). Generally the level of peroxide in the skin may be determined by assay of a sample of untreated skin which is peeled from a test animal. A preweighed sample of from 10 to 50 mg is homogenized in 0.2 M phosphate buffer pH 6.5 and centrifuged. The supernatant is collected and the peroxide level is determined using the TBA test. A sample of skin from the same animal which has been treated according to the invention is also peeled and the peroxide level is determined. A reduction in the peroxide level of about 35% when an antioxidant obtained from a plant is applied as 0.5% w/w dispersion in a petrolatum base is the criteria for determining if a given plant extract is useful according to the present invention.
Samples of creams and appropriate controls were applied to mice or rat skin for a fixed period. The application was done once a day. Experiments were terminated by killing the animals, peeling the skin and freezing it in liquid nitrogen. Samples of the frozen skin were homogenized in 0.2M phosphate buffer, pH 6.5. After centrifugation the supernatant was collected and analyzed for the peroxide value using the TBA (Thiobarbituric acid) test as described by Sinnhuber, et al. Food Res. V. 23, p 620 (1958).
In these experiments adult mice (2months old) were treated as described in Example 2. The grown mice were shaved before applying the creams to the skin.
In this experiment the antioxidant was dissolved in Oil of Olay. Mice were sacrificed after 21 days.

Molecules are shown by their SMILES.

Regarding `Cc1c(C)c2c(c(C)c1O)CCC(C)(CCCC(C)CCCC(C)CCCC(C)C)O2` (stereo not drawn) [alpha tocopherol], the “effect on the level of peroxides in the skin” value (from here on “effect on the level”) is reported as “no reduction of the peroxides was observed”.

`Cc1cc(C(C)(C)C)c(O)c(C(C)(C)C)c1` [BHT, butylated hydroxy toluene]: the “effect on the level” value is on record as “no reduction of the peroxides was observed”. As for `COc1ccc(O)c(C(C)(C)C)c1` [BHA, butylated hydroxy anisole], the “effect on the level” value was “no reduction of the peroxides was observed”.

The values above are taken from patent publication US5124167A, “Anti-oxidant compositions containing fat” (Bar-Ilan University, priority 1990, dated 1992).
